This is an account of results in publication PMC3169519 (PLoS Computational Biology, 2011).

For one series, the system named is CESs. Conditions: cited from earlier work.
A further series concerns the target T1, TOP1 (Homo sapiens, UniProt P11387).
T1 construct: endogenous in cells; host or cells: Caco-2 (ATCC)
T1 sequence (P11387 1-765): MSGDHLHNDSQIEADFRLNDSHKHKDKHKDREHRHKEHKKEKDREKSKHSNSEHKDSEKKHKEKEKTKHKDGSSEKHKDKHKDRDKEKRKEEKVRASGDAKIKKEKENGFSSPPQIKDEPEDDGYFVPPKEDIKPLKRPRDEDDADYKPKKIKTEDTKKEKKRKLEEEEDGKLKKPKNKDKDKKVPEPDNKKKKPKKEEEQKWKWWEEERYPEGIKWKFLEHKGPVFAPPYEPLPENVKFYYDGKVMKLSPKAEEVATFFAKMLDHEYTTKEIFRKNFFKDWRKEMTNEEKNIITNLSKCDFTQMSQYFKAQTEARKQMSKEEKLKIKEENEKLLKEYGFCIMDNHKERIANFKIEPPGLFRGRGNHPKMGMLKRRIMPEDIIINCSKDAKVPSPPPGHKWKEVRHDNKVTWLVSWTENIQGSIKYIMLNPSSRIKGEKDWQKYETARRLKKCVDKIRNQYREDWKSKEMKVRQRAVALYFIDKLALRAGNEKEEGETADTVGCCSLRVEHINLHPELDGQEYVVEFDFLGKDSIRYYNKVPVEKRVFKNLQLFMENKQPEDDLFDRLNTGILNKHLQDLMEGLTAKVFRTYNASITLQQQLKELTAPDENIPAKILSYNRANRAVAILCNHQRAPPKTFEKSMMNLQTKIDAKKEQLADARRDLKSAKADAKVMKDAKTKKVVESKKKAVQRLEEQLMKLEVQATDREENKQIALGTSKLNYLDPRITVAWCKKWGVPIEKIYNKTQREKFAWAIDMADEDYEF
Briefly: DNA-bound TOP1 (Topo I Link Kit) after CPT11 exposure of synchronized cells. The series is classed as cell-based. The following applies: synchronized Caco-2 cells. The protocol:
The Caco-2 cell line was obtained from the American Type Culture Collection (Rockville, MD). Cells were grown in Dulbecco's modified Eagle's: Ham F12 medium (1∶1) supplemented with penicillin ([…]), streptomycin ( [drawing 195] ), glutamine (2 mM) (Fischer Scientific, Paris, France) and 10% of Fetal Bovine Serum (FBS) (Dutscher, Paris, France). They were maintained in a humidified atmosphere containing 5% [drawing 196] at [drawing 197] . Experiments were performed four days after confluence. CPT11 was purchased from Pfizer (Paris, France). For transport inhibition studies, non-synchronized cells were pre-incubated with verapamil, a non specific inhibitor of ABC transporters ( [drawing 198] for 24 h; Sigma Aldrich, Paris, France). […] Cell synchronization was performed by a serum shock which consisted in a 2-hour exposure to serum rich medium (DMEM:F12 containing 50% FBS). The beginning of the serum shock defined Circadian Time 0 (CT 0).
The Topo I Link Kit (TopoGen, Port Orange, FL) was used to quantify the amount of TOP1 linked on DNA [56]. […] Fractions of [drawing 208] were removed from the top of the gradient, and an aliquot of each fraction ( [drawing 209] ) was diluted (1/5) and quantified at 260 nm with spectrophotometer (Eppendorf, Paris, France). […] Chemoluminescence signals were detected with Las4000 camera and quantified with ImageJ software. […]

The conditions of series [1]: cancer patients, dumbbell delivery scheme over 6h; cited from earlier work.

Like-named read-outs stand apart in the source and are kept apart here.

For the compound `CCc1c2c(nc3ccc(OC(=O)N4CCC(N5CCCCC5)CC4)cc13)-c1cc3c(c(=O)n1C2)COC(=O)[C@]3(O)CC` [CPT11, irinotecan], the Kces with CESs ([CES]=1.42 µM) and with CESs ([CES]=2.03 µM) was 53 µM in each case. Also, in the series with CESs ([CES]=2.03 µM), the Vces is 0.714 µM/h. The “DNA-bound TOP1 protein amount, % of TOP1 total protein quantity” value on TOP1 (30 min CPT11 exposure at CT14) was 47%; at TOP1 (30 min CPT11 exposure at CT28), 35.5%. For the same compound, the “time CPT11 circulating” value in series [1] is “approximately 12 h”.
